Legend:
Type in all cases: physicochemical
[1] = Metabolic stability of the compound assessed as thiol group decomposition after 48 hrs in presence of glutathione
[2] = Stability in phosphate buffer after 24 hrs
[3] = Metabolic stability of the compound assessed as thiol group addition after 48 hrs in presence of glutathione
[4] = Solubility of the compound in phosphate buffer

## O=C(O)[C@H]1CCCC[C@H]1C(=O)N1CCc2ccccc2[C@H]1CN1C(=O)c2ccccc2C1=O
[1]
  Stability: Stable
[2]
  Stability: Stable
[3]
  Stability: Stable
[4]
  solubility: > 100 µM

Reference: ChEMBL document CHEMBL2380257, “Discovery of a small-molecule inhibitor and cellular probe of Keap1-Nrf2 protein-protein interaction” (Bioorg Med Chem Lett, 2013)
